In patent US12286402B2, “Compounds and their use for the treatment of alpha1-antitrypsin deficiency” (CENTESSA PHARMACEUTICALS (UK) LIMITED, priority 2019, dated 2025):

Target: T1, human Z A1AT (Homo sapiens, UniProt P01009, E366K)
T1 construct: expressed in transfected cells; host or cells: HEK-Z cells (human embryonic kidney cell line stably transfected with the human Z A1AT gene)
Test: A1AT cell secretion assay using HEK-Z cells (A1AT ELISA of supernatants)
Assay type: cell-based
Details: 48 h, supernatant A1AT by ELISA
Method: HEK-Z cells, a human embryonic kidney cell line stably transfected with the human Z A1AT gene, were plated into 96 well plates (3.0×10^5 cells/ml with 200 μl of media/well) overnight at 37° C. in a humidified atmosphere containing 5% CO2. Following incubation cells were washed with 200 μl serum-free media three times and media was replaced with treatments in quadruplicate using serum free media containing either vehicle, 10 μM suberanilohydroxamic acid (SAHA) or a compound of the invention (at concentrations of 10, 33, 100 and 333 nM) for 48 h in a 37° C. incubator in a final volume of 200 μl. At the end of the incubation step the supernatants were removed from the wells, centrifuged at 1000×g at 4° C. for 10 min and were assayed for human A1AT levels by ELISA (Human Serpin A1/α1-antitrypsin duo set ELISA, R& D Systems, DY1268) per manufacturer's instructions.
Briefly, a 96 well plate was coated with human A1AT capture antibody overnight at room temperature (1:180 dilution from stock, 100 μl final volume/well). The capture antibody was then removed and wells washed three times with 300 μl wash buffer (0.05% Tween 20 in PBS) and then 200 μl reagent diluent ([…]) was incubated in each well for 1 h at room temperature. Diluted samples, standards (125, 250, 500, 1000, 2000, 4000 and 8000 pg/ml A1AT) or blanks were then added to each well in duplicate and the plates were covered with a plate sealer and left at room temperature for 2 h. At the end of the sample incubation step, samples were removed and all wells washed as previously and 100 μl detection antibody (1:180 dilution from stock) was added to each well and incubated for a further 2 h at room temperature. Following incubation with detection antibody, supernatant was removed and wells were washed as previously and 100 μl streptavidin-HRP solution (1:200 dilution from stock) was added to each well for 20 min in the dark. After which, 50 μl stop solution (2M H2SO4) was added and optical density (OD) of each well was read at 450 nm with 570 nm blank subtracted from each well using a microplate reader. A 4 parameter logistic curve was constructed using GraphPad Prism 7 and A1AT concentrations were determined in each sample by interpolation from a standard curve and multiplying by the appropriate dilution factor.

T1 sequence (P01009 25-418 E366K): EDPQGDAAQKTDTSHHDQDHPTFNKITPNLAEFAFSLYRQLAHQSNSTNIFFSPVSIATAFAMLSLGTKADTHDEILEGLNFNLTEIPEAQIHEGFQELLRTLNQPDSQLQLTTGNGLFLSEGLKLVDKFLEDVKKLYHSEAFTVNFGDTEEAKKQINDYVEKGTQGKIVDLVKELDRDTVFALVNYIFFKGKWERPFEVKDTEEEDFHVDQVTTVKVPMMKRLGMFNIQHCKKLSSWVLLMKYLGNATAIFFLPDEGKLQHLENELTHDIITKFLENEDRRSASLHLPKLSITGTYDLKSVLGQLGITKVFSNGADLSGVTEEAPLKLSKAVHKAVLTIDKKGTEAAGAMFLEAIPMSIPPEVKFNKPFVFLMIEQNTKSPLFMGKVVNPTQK

Row | Structure (SMILES) | Median A1AT % increase over vehicle at 300 nM [%]
1 | CN(Cc1ccccc1)C(=O)c1ccc(Cn2ccccc2=O)cc1 [Example 4, N-benzyl-N-methyl-4-((2-oxopyridin-1(2H)-yl)methyl)benzamide] | 142
2 | CC(C)N(C)C(=O)c1ccc(Cn2ccccc2=O)cc1 [Example 3, N-isopropyl-N-methyl-4-((2-oxopyridin-1(2H)-yl)methyl)benzamide] | 134
3 | CN(C)C(=O)c1ccc(Cn2ccccc2=O)cc1 [Example 1, N,N-dimethyl-4-((2-oxopyridin-1(2H)-yl)methyl)benzamide] | 125
4 | CN(CC(F)(F)F)C(=O)c1ccc(Cn2ccccc2=O)cc1 [Example 5, N-methyl-4-((2-oxopyridin-1(2H)-yl)methyl)-N-(2,2,2-trifluoroethyl)benzamide] | 129
5 | CCN(C)C(=O)c1ccc(Cn2ccccc2=O)cc1 [Example 2, N-ethyl-N-methyl-4-((2-oxopyridin-1(2H)-yl)methyl)benzamide] | 147
